This passage reports IC50 results from patent US9120749B2, “Quinoline derivatives and MELK inhibitors containing the same” (ONCOTHERAPY SCIENCE, INC., priority 2010, dated 2015).

One may read the IC50 as the concentration that gives 50% inhibition.

This assay deals with MELK (Homo sapiens, UniProt Q14680). Description: Kinase assay: MELK activity, phosphorylation of FITC-labeled histone H3 peptide measured by IMAP fluorescence polarization. As to conditions: MELK kinase assay, IMAP fluorescence polarization, 50 micro-M ATP; read-out: IC50 (μM) (kinase assay). The format is biochemical. The procedure: MELK activity was determined in the presence or absence of compounds using fluorescein isothiocyanate-labeled (FITC-labeled) histone H3 peptide as a substrate. […] Test compounds were dissolved in DMSO at 12.5 mM and then serially diluted as the DMSO concentration in the assays to be 1%. […] The reaction was stopped by the addition of three fold assay volume of progressive binding solution. Following 0.5 hour incubation at room temperature, fluorescence polarization was measured by Wallac EnVision 2103 multilabel reader (PerkinElmer).
MELK, sequence (Q14680 whole entry, looked up): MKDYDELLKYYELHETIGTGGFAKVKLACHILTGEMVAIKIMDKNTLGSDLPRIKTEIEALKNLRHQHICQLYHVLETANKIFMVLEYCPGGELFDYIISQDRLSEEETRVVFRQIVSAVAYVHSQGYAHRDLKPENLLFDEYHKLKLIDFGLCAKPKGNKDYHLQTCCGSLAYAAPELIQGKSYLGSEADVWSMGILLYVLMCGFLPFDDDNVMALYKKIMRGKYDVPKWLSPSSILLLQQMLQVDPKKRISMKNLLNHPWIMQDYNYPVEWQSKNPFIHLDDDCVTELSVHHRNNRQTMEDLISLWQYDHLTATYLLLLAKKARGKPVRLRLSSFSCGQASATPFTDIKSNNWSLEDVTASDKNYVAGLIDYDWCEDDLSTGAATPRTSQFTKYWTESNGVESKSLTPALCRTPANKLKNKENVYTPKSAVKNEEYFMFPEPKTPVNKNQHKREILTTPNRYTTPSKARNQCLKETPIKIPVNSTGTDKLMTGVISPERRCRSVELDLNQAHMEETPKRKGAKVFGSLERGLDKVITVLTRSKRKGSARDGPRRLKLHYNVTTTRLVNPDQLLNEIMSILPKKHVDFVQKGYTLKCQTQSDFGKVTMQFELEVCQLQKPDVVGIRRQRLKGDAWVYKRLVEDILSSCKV
(Fluorescence polarisation rises when a labelled molecule tumbles more slowly, as on binding a larger partner.)

The structures appear in SMILES notation. Counter-ions that a name gives are not always drawn.

For `CC(=O)c1cnc2cc(C)c(-c3cc(F)c(O)c(Cl)c3)cc2c1Nc1ccc(N2CCN(C)CC2)nc1` [Example 856, 1-(6-(3-chloro-5-fluoro-4-hydroxy-phenyl)-7-methyl-4-((6-(4-methyl-piperazin-1-yl)pyridin-3-yl)amino)quinolin-3-yl)ethanone hydrochloride], the IC50 was 0.46 µM.
Take `CC(=O)c1c(C)nc2ccc(-c3cc(Cl)c(O)c(Cl)c3)cc2c1N[C@H]1CC[C@H](CN(C)C)CC1` [Example 833, 1-(6-(3,5-dichloro-4-hydroxyphenyl)-4-(1R,4R)-4-((dimethylamino)methyl)cyclohexylamino)-2-methylquinolin-3-yl)ethanone hydrochloride]: the IC50 came out at 0.17 µM.
In the case of `CC(=O)c1c(C)nc2ccc(-c3cc(F)c(O)c(Cl)c3)cc2c1N[C@H]1CC[C@H](CN(C)C)CC1` [Example 834, 1-(6-(3-chloro-5-fluoro-4-hydroxy-phenyl)-4-(1R,4R)-4-((dimethylamino)methyl)cyclohexylamino)-2-methyl-quinolin-3-yl)ethanone hydrochloride] it was 0.82 µM.
With `CC(=O)c1cnc2cc(C)c(-c3cc(F)c(O)c(Cl)c3)cc2c1N[C@H]1CC[C@H](CN(C)C)CC1` [Example 859, 1-(6-(3-chloro-5-fluoro-4-hydroxy-phenyl)-4-((1R,4R)-4-((dimethylamino)methyl)cyclohexyl)amino)-7-methyl-quinolin-3-yl)ethanone hydrochloride], the IC50 amounted to 0.84 µM.
As for `COc1cc(-c2ccc3ncc(C(C)=O)c(N[C@H]4CC[C@H](N)CC4)c3c2)cc(Cl)c1O` [Example 940, 1-(4-((1R,4R)-4-aminocyclohexylamino)-6-(3-chloro-4-hydroxy-5-methoxyphenyl)quinolin-3-yl)ethanone, hydrochloride], the 50% inhibitory concentration (IC50) is 0.0012 µM.
Turning to `CC(=O)c1cnc2ccc(-c3cc(Cl)c(O)c(Cl)c3)cc2c1N[C@H]1CC[C@H](N)CC1` [Example 939, 1-(4-((1R,4R)-4-aminocyclohexylamino)-6-(3,5-dichloro-4-hydroxyphenyl)quinolin-3-yl)ethanone, hydrochloride], the IC50 is 0.0034 µM.
In the case of `CN(C)[C@H]1CC[C@H](Nc2c(C(=O)C3CC3)cnc3ccc(-c4cc(F)c(O)c(Cl)c4)cc23)CC1` [Example 264, (6-(3-chloro-5-fluoro-4-hydroxyphenyl)-4-((1R,4R)-4-(dimethylamino)cyclohexylamino)quinolin-3-yl)(cyclopropyl)methanone] it was 0.0029 µM; in that of `CN1CCN(c2ccc(Nc3c(C(=O)C4CC4)cnc4cc(C(F)(F)F)c(-c5cc(F)c(O)c(Cl)c5)cc34)cn2)CC1` [Example 840, (6-(3-chloro-5-fluoro-4-hydroxyphenyl)-4-(6-(4-methylpiperazin-1-yl)pyridin-3-ylamino)-7-(trifluoromethyl)quinolin-3-yl)(cyclopropyl)methanone], 3.1 µM; in that of `CC(=O)c1cnc2ccc(-c3ccc4nc[nH]c4c3)cc2c1Nc1cccc(CCN2CCCC2)c1` [Example 896, 1-(6-(1H-benzo[d]imidazol-6-yl)-4-((3-(2-(pyrrolidin-1-yl)ethyl)phenyl)amino)quinolin-3-yl)ethanone hydrochloride], 0.22 µM.
Turning to `O=C(c1cnc2ccc(-c3cc(Cl)c(O)c(Cl)c3)cc2c1Nc1ccc(CN2CCCC2)cc1)C1CC1` [Example 366, Cyclopropyl{6-(3,5-dichloro-4-hydroxyphenyl)-4-[4-(pyrrolidin-1-ylmethyl)phenylamino]quinolin-3-yl}methanone], the IC50 was found to be 0.15 µM.
Regarding `CC(C)C(=O)c1cnc2ccc(-c3cc(F)c(O)c(F)c3)cc2c1N[C@H]1CC[C@H](N)CC1` [Example 938, 1-(4-((1R,4R)-4-aminocyclohexylamino)-6-(3,5-difluoro-4-hydroxyphenyl)quinolin-3-yl)-2-methylpropan-1-one, hydrochloride], the IC50 was determined as 0.017 µM.
Consider `COc1ccc2c(c1)CN(c1ccc3ncc(C(C)=O)c(N[C@H]4CC[C@H](CN(C)C)CC4)c3c1)C2=O` [Example 933], for which the IC50 is 1.2 µM.
